{"source": "patent US12502358B1", "about": "“Centanafadine multiphasic controlled-release pharmaceutical formulation” (Innovate Therapeutics LLC, priority 2024, dated 2025)", "origin": "cited, not measured here", "key": {"[1]": {"target": "norepinephrine reuptake transporter (NET) (Homo sapiens, UniProt P23975)", "sequence (P23975 whole entry)": "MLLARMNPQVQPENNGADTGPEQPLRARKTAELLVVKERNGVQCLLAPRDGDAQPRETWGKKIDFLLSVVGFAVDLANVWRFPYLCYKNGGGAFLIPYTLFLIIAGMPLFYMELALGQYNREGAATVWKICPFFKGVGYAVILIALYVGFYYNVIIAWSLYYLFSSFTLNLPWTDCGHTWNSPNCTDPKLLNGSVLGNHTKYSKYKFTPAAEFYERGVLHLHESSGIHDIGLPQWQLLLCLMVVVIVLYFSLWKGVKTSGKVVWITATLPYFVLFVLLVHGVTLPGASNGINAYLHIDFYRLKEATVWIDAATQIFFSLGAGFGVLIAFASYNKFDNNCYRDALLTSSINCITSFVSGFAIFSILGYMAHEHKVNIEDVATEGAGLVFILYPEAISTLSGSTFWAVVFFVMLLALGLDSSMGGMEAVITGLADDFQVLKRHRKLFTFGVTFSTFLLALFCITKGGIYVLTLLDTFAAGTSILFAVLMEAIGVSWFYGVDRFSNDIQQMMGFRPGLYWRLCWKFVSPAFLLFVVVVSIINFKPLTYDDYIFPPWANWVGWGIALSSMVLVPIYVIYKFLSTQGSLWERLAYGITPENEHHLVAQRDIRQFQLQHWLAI", "details": "rank among NET, DAT, SERT"}, "[2]": {"details": "per BCS classification"}, "[3]": {"target": "dopamine reuptake transporter (DAT) (Homo sapiens, UniProt Q01959)", "sequence (Q01959 whole entry, species assumed)": "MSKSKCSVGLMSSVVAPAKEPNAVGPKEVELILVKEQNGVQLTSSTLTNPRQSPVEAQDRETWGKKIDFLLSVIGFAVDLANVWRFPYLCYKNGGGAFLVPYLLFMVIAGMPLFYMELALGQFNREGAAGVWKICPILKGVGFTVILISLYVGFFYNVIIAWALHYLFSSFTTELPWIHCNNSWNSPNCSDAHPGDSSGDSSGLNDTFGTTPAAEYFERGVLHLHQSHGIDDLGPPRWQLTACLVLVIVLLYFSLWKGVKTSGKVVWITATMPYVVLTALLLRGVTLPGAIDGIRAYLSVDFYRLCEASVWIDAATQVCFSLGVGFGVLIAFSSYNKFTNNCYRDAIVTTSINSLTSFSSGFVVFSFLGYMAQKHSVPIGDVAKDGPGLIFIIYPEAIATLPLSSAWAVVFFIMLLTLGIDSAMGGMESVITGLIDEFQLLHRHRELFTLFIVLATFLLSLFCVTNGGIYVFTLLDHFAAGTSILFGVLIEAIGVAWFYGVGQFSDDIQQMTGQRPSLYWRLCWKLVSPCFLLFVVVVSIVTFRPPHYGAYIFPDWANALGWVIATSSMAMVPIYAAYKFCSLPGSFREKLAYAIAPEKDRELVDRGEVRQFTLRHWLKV", "details": "fraction of the potency towards NET"}, "[4]": {"target": "serotonin reuptake transporter (SERT) (Homo sapiens, UniProt P31645)", "sequence (P31645 whole entry, species assumed)": "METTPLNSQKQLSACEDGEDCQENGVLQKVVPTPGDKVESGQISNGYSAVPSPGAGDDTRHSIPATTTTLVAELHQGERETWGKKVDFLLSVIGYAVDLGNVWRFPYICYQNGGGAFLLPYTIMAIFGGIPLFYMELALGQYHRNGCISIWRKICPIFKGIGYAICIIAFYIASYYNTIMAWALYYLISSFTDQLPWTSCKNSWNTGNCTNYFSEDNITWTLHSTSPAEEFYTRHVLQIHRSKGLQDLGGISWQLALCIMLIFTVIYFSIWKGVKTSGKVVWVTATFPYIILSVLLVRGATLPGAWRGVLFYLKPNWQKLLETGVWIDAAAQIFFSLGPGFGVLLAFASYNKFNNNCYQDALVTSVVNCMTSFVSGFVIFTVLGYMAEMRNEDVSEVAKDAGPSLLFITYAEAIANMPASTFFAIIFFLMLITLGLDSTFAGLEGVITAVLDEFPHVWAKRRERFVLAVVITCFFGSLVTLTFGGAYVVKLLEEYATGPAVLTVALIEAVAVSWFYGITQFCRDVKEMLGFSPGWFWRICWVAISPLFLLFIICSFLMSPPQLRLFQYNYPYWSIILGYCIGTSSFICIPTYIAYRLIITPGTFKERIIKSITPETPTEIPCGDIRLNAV", "details": "fraction of the potency towards NET"}}}
{"smiles": "c1ccc2cc([C@]34CNC[C@H]3C4)ccc2c1", "note": "[Centanafadine, (1R,5S)-1-(naphthalen-2-yl)-3-azabicyclo[3.1.0]hexane]", "values": [{"measurement": "potency towards the norepinephrine reuptake transporter (NET)", "setting": "[1]", "value": "most potency"}, {"measurement": "solubility", "setting": "[2]", "value": "highly soluble"}, {"measurement": "potency towards the dopamine reuptake transporter (DAT) relative to NET", "setting": "[3]", "value": "one-sixth as much"}, {"measurement": "potency towards the serotonin reuptake transporter (SERT) relative to NET", "setting": "[4]", "value": "one-fourteenth as much"}]}
